PMC7486275 (Nature, 2020)
Where two headings read alike, the source gives them in different places. Peptide text beside a SMILES is read from it. * marks the point of attachment. Cbz = O=C(OCc1ccccc1)*

What was measured:
[1] = target: CDK12-cycK and DDB1 (Homo sapiens, UniProt Q16531+Q9NYV4, K965R); assay: TR-FRET titration of CDK12-Alexa488cycK to terbiumDDB1; conditions: vs basal binding in DMSO
[2] = target: CDK12-cycK complex by RBX1N8CUL4-DDB1 (Homo sapiens, UniProt Q16531+Q9NYV4, K965R); assay: In vitro ubiquitination assay; type: biochemical; conditions: 2 μM compound
[3] = target: cycKeGFP in HEK293TCas9 cells (Homo sapiens, UniProt Q16531+Q9NYV4); type: cell-based
[4] = tested on: CycK in HEK293TCas9 cells; assay: Immunoblots of CycK degradation; type: cell-based, human; conditions: pre-treated with 0.5 μM MLN7243, 1 μM MLN4924 or 10 μM MG132 for 4 hours, then 1 μM CR8 for 2 hours
[5] = tested on: HEK293TCas9 cells; conditions: 3 days
[6] = tested on: K562Cas9, OVK16Cas9, A564Cas9, ES2Cas9 and MOLM13Cas9 cell lines; assay: Validation of drug-E3 ligase pairs; type: cell-based; conditions: flow-based validation, 3 days

Sequence of CDK12-cycK complex by RBX1N8CUL4-DDB1 (Q15843 1-76): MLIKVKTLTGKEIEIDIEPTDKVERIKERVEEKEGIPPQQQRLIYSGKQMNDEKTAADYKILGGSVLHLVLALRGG
Sequence of CDK12-cycK complex by RBX1N8CUL4-DDB1 (Q16531 whole entry): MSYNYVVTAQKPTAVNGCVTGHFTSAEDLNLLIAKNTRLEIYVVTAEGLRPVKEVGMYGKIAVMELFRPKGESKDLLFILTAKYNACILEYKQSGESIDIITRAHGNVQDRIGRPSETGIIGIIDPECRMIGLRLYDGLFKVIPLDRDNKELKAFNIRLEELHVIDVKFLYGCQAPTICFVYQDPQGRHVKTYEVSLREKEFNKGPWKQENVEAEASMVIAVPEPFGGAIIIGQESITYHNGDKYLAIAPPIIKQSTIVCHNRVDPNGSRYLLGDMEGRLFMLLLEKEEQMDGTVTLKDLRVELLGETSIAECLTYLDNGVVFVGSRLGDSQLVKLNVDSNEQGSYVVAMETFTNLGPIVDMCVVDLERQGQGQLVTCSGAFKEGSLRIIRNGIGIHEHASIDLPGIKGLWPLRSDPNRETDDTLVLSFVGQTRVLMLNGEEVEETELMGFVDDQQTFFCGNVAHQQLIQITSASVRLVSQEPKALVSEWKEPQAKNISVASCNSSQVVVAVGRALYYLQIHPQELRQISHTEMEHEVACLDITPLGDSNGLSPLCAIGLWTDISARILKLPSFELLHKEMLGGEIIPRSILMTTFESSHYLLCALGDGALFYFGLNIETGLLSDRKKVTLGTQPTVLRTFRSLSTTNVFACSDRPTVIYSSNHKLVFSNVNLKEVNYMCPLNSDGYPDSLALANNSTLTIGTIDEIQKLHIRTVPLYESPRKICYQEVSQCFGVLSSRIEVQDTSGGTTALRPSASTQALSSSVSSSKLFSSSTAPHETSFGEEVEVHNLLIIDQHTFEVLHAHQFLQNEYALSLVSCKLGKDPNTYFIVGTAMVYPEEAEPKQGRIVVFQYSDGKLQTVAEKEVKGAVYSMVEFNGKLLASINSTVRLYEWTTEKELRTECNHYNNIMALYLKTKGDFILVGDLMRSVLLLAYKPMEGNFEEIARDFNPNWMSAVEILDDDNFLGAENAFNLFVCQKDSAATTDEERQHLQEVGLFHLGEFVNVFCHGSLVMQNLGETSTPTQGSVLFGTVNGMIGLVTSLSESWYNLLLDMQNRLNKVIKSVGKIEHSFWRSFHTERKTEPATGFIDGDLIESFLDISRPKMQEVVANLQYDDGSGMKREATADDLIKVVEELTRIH
Sequence of CDK12-cycK complex by RBX1N8CUL4-DDB1 (Q9NYV4 713-1052 K965R): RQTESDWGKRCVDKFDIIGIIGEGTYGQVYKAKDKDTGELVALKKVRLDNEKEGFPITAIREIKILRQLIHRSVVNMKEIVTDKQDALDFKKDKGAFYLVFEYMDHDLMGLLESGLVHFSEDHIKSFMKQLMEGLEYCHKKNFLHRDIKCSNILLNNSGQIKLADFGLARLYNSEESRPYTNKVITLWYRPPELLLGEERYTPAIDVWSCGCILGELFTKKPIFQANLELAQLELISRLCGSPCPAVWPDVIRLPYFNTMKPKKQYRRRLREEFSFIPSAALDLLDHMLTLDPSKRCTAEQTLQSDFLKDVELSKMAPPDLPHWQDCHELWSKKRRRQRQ
Sequence of CDK12-cycK complex by RBX1N8CUL4-DDB1 (P62877 whole entry, further chain): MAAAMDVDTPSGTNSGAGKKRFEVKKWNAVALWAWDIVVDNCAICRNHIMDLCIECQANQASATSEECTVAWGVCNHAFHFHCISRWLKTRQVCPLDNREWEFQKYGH
Sequence of CDK12-cycK complex by RBX1N8CUL4-DDB1 (O75909 1-267, further chain): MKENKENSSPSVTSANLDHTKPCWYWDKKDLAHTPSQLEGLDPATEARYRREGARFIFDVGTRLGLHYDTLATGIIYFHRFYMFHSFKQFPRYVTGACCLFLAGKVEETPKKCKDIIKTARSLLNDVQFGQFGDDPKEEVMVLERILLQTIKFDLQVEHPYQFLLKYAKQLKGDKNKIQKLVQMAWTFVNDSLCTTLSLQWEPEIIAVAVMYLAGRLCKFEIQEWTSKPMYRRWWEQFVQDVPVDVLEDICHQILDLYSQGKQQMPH
Sequence of CDK12-cycK complex by RBX1N8CUL4-DDB1 (Q13619 whole entry, further chain): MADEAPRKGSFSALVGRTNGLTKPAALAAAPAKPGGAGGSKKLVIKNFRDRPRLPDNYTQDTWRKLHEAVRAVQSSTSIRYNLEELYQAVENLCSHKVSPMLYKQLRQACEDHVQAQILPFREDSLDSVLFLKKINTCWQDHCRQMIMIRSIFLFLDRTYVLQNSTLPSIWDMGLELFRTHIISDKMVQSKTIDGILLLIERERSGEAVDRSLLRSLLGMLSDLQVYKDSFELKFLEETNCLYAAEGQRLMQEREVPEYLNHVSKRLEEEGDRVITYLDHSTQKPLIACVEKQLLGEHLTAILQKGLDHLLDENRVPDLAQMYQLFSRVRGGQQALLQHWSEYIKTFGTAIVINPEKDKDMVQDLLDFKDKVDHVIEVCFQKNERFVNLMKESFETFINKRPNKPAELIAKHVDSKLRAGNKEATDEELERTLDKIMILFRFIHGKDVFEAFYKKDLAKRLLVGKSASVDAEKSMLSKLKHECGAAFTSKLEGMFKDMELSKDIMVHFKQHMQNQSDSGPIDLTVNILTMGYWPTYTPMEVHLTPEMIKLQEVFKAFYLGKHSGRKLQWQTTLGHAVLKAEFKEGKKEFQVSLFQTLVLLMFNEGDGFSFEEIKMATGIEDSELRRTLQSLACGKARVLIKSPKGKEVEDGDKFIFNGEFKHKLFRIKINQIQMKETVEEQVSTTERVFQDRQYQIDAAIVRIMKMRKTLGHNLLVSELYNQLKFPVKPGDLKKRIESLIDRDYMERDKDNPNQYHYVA
Sequence of CDK12-cycK and DDB1 (Q9NYV4 713-1052 K965R): as the sequence (Q9NYV4 713-1052 K965R) above
Sequence of CDK12-cycK and DDB1 (O75909 1-267, further chain): as the sequence (O75909 1-267, further chain) above
Sequence of CDK12-cycK and DDB1 (Q16531 whole entry): as the sequence (Q16531 whole entry) above

`CN(C)C/C=C/C(=O)Nc1ccc(C(=O)N2CCC[C@@H](Nc3ncc(Cl)c(-c4c[nH]c5ccccc45)n3)C2)cc1` [THZ531] was tested, and the “effect on CDK12-cycK interaction with DDB1 (TR-FRET signal)” value (“effect on CDK12-cycK interaction” for short) [1] was “further decreased the TR-FRET signal” and the “cycK ubiquitination in vitro” value [2] was “diminished cycK ubiquitination in vitro below DMSO control levels”.

With `CC[C@H](CO)Nc1nc(NCc2ccccc2)c2ncn(C(C)C)c2n1` [Roscovitine] the “cycK ubiquitination in vitro” value [2] was “less processive ubiquitination” and the “degradation of the cycKeGFP reporter in cells” value [3] was “neither DRF053 nor roscovitine induced degradation”.

With `CN1CC[C@H](c2c(O)cc(O)c3c(=O)cc(-c4ccccc4Cl)oc23)[C@H](O)C1` [Flavopiridol] the “effect on CDK12-cycK interaction” value [1] was “stimulated the binding of CDK12-cycK to DDB1”, the “cycK ubiquitination in vitro” value [2] was “moderate cycK ubiquitination” and the “degradation of the cycKeGFP reporter in cells” value ([3]; HEK293TCas9 cells, 1 μM compound, 2 hours) was “failed to degrade cycK in cells”.

For `NS(=O)(=O)OC[C@@H]1C[C@@H](n2ccc3c(N[C@H]4CCc5ccccc54)ncnc32)C[C@@H]1O` [MLN4924], the “rescue of CR8-induced cycK degradation” value [4] was “rescued” and the “effect on cell viability” value [5] was “only minor effects on cell viability”.

In the case of `O=C(NS(=O)(=O)c1ccc(Br)s1)c1ccc(Cl)cc1Cl` [tasisulam], the “effect of sgRNAs targeting DCAF15 on drug-induced toxicity” value [6] is reported as “confer resistance”.

With `NS(=O)(=O)c1ccc(S(=O)(=O)Nc2cccc3c(Cl)c[nH]c23)cc1` [indisulam] the “effect of sgRNAs targeting DCAF15 on drug-induced toxicity” value [6] was “confer resistance”.

In the case of `CC(C)C[C@@H](C=O)NC(=O)[C@H](CC(C)C)NC(=O)[C@H](CC(C)C)NC(=O)OCc1ccccc1` [MG132] (Cbz-Leu-Leu-Leu-aldehyde), the “rescue of CR8-induced cycK degradation” value [4] is reported as “rescued”.

In the case of `NS(=O)(=O)OC[C@H]1C[C@@H](Nc2ccnc3cc(-c4cccc(SC(F)(F)F)c4)nn23)[C@H](O)[C@@H]1O` [MLN7243], the “rescue of CR8-induced cycK degradation” value [4] is reported as “rescued”.

In the case of `Nc1ncnc2c1ncn2[C@@H]1O[C@H](COP(=O)(O)OP(=O)(O)OP(=O)(O)O)[C@@H](O)[C@H]1O` [ATP], the “effect on CDK12-cycK interaction” value [1] is reported as “neither facilitated nor abrogated the interaction”.
